Laboratory results as given in publication PMC8268238, “Seleno-Functionalization of Quercetin Improves the Non-Covalent Inhibition of M^pro and Its Antiviral Activity in Cells against SARS-CoV-2” (International Journal of Molecular Sciences, 2021).
Where two headings read alike, the source gives them in different places.

Legend:
SARS-CoV-2 [1] = assay: Inhibition of SARS-CoV-2 replication in Vero cells by RT-qPCR; format: cell-based; settings: for IC50: Severe acute respiratory syndrome coronavirus 2, Vero, 48 h, read-out: IC50 of SARS-CoV-2 replication (RT-qPCR); for logIC50 of SARS-CoV-2 replication (RT-qPCR): log of concentration in µM, Figure S4
SARS-CoV-2 M^pro [2] = molecular target: T1, SARS-CoV-2 M^pro (Severe acute respiratory syndrome coronavirus 2, UniProt P0DTD1); assay: SARS-CoV-2 M^pro inhibition assay (FRET substrate); format: biochemical; settings: 0.2 μM enzyme, 20 μM substrate, pH 7, DMSO 2.5%; for IC50: equivalent to Ki^app; for Ki: intrinsic inhibition constant
Experimental: A continuous assay based on Förster resonance energy transfer (FRET) to measure in vitro the catalytic activity of M^pro was implemented by using the substrate (Dabcyl)KTSAVLQSGFRKME(Edans)-NH2 (Biosyntan GmbH, Berlin, Germany) The enzymatic reaction was initiated by adding substrate at 20 μM (final concentration) to the enzyme at 0.2 μM (final concentration) in a final volume of 100 μL. The reaction buffer was sodium phosphate 50 mM, pH 7, NaCl 150 mM, and DMSO 2.5%. Fluorescence emission was measured in a FluoDia T70 microplate reader (Photon Technology International, Birmingham, NJ, USA) for 20 min (excitation wavelength, 380 nm; emission wavelength, 500 nm). The initial slope of the time evolution curve of the fluorescence emission signal provided a direct quantification of the enzymatic activity.
The in vitro inhibition potency of the compounds against M^pro was assessed through the estimation of the inhibition constant, Ki, and the half-maximal inhibitory concentration, IC50, from experimental inhibition curves. Inhibition curves were obtained by measuring the enzyme activity (at fixed 0.2 μM enzyme concentration and fixed 20 μM substrate concentration) as a function of compound concentration (serial 2-fold dilution from 125 µM to 0 μM), maintaining the percentage of DMSO (2.5%) constant. The enzymatic activity was quantitated as the initial slope of the substrate fluorescence emission time evolution curve, and was plotted as a function of compound concentration. The ratio between the activity (slope) in the presence and absence of the compound provides the residual percentage of activity at a given compound concentration. Nonlinear regression analysis employing a simple inhibition model (considering inhibitor depletion due to enzyme binding) allowed us to estimate the apparent inhibition constant, Ki^app, for each compound according to Equation (1):(1) [EI]=1/2([I]T+[E]T+Kiapp−([I]T+[E]T+Kiapp)^2−4[E]T[I]T)[I]=[I]T−[EI]=1/2([I]T−[E]T−Kiapp+([I]T+[E]T+Kiapp)^2−4[E]T[I]T)v([I])/v([I]=0)=1−[EI]/[E]T=1/1+[I]/Kiapp, where [EI] is the concentration of the enzyme–inhibitor complex, [E]T and [I]T are the total concentrations of the enzyme and the inhibitor, Ki^app is the apparent inhibition constant for the inhibitors (quercetin and derivatives), [I] is the concentration of the free inhibitor, and v is the initial slope of the enzymatic activity trace at a given (free) inhibitor concentration [I] (or total inhibitor concentration [I]T). No approximation for the free inhibitor concentration (e.g., assuming to be equal to the total inhibitor concentration) was made, thus having general validity for any total enzyme and inhibitor concentration and any value of the inhibition constant (even for tight-binding inhibitors). In addition, if the inhibitor acts through a purely competitive mechanism, the previous equation can be substituted by Equation (2):(2) v([I])/v([I]=0)=1/1+[I]/Kiapp=1/1+[I]/Ki(1+[S]/Km), where Ki is the intrinsic (i.e., substrate concentration-independent) inhibition constant, Km is the Michaelis–Menten constant for the enzyme–substrate interaction, and [S] is the substrate concentration. Because Km and [S] are known, the intrinsic inhibition constant can be determined. Furthermore, approximating the free compound concentration by the total compound concentration and neglecting ligand depletion, the Ki^app in Equation (2) is equivalent to the IC50, as reported in Table 3. However, it should be emphasized that the IC50 is an assay-dependent inhibition potency index (among other parameters, it depends on the enzyme and substrate concentrations, as well as on the Km); thus, the intrinsic inhibition constant is a better inhibition potency index. Uncertainties have been reported as 95% profile likelihood asymmetric confidence intervals, as especially recommended for equilibrium constants (i.e., binding association/dissociation constants and inhibition constants).

SARS-CoV-2 [3] = settings: for Inhibition of the virus-caused cytopathic effect (CPE): 2 days; for SARS-CoV-2-related CPE reduction (in words): tested at 100, 75, 50, 25 and 10 µM, judged at non-toxic concentrations
SARS-CoV-2 M^pro [4] = molecular target: T1, SARS-CoV-2 M^pro; assay: Reversibility test of M^pro interaction (SEC/dialysis, then activity and near-UV CD); format: biochemical; settings: M^pro 24 μM incubated with compound 200 μM, 30 min, 25 °C, then SEC or dialysis
Vero cells = assay: XTT cell viability assay; format: cell-based, Cercopithecus aethiops; settings: quercetin 500–100 µM; 2d 100–10 µM; Figure S2
Experimental: Cell viability was evaluated using the XTT Cell Viability Assay kit (Biological Industries, Cromwell, CT, USA) according to the manufacturer’s protocol. Vero, A549ACE2+, CRFK, HRT-18, LLC-MK2, and HSF cells were cultured on 96-well plates. Cells were incubated with ACF for 24 h at 37 °C in an atmosphere containing 5% CO2. After incubation, the medium was discarded and 100 µL of fresh medium was added to each well. Then, 25 µL of the activated 2,3-bis-(2-methoxy-4-nitro-5-sulphenyl)-(2H)-tetrazolium-5-carboxanilide (XTT) solution was added and samples were incubated for 2 h at 37 °C. The absorbance (λ = 450 nm) was measured using a Spectra MAX 250 spectrophotometer (Molecular Devices, San Jose, CA, USA). The obtained results were normalized to the control samples, where cell viability was set to 100%.

SARS-CoV-2 [5] = tested on: SARS-CoV-2; parameters: method as in PMID 32272481; settings: cited from earlier work
[6] = tested on: SARS-CoV-2 main protease (M^pro or 3CL^pro); settings: cited from earlier work

Row | Compound | melting point | IC50 (SARS-CoV-2 M^pro [2]) | Ki (SARS-CoV-2 M^pro [2]) | Inhibition of the virus-caused cytopathic effect (CPE) (SARS-CoV-2 [3]; 10 µM, Vero cells) | Inhibition of the virus-caused cytopathic effect (CPE) (SARS-CoV-2 [3]; 25 µM, Vero cells) | Inhibition of the virus-caused cytopathic effect (CPE) (SARS-CoV-2 [3]; 50 µM, Vero cells) | Inhibition of the virus-caused cytopathic effect (CPE) (SARS-CoV-2 [3]; 75 µM, Vero cells) | Inhibition of the virus-caused cytopathic effect (CPE) (SARS-CoV-2 [3]; 100 µM, Vero cells) | SARS-CoV-2-related CPE reduction (in words) (SARS-CoV-2 [3]) | cytotoxicity on Vero cells (in words) (Vero cells) | logIC50 of SARS-CoV-2 replication (RT-qPCR) (SARS-CoV-2 [1]) | further results
1 | O=c1c(O)c(-c2ccc(O)c(O)c2)oc2c([Se]c3ccccc3)c(O)cc(O)c12 [2a, 2-(3,4-Dihydroxyphenyl)-3,5,7-trihydroxy-8-(phenylselanyl)-4H-chromen-4-one] | 211 to 213 °C | 5.1 µM | 1.8 µM | - | - | + | tox | tox | inhibited the development of the CPE |  |  | inhibition of SARS-CoV-2 replication by RT-qPCR (in words) (SARS-CoV-2 [1]; Vero cells, Figure S1): did not indicate any inhibition
2 | Cc1ccc([Se]c2c(O)cc(O)c3c(=O)c(O)c(-c4ccc(O)c(O)c4)oc23)cc1 [2d, 2-(3,4-Dihydroxyphenyl)-3,5,7-trihydroxy-8-(p-tolylselanyl)-4H-chromen-4-one] | 203 to 206 °C | 11 µM | 3.8 µM | + | + | + | + | + | inhibited the development of the CPE | none of the tested concentrations exhibited cytotoxicity | 0,8968 | reversibility of the interaction with M^pro (SARS-CoV-2 M^pro [4]): reversible interaction; IC50 (SARS-CoV-2 [1]): 8 µM; improvement of the antiviral potency versus quercetin (SARS-CoV-2 [1]; ratio of antiviral IC50 values): 24 fold; morphological changes of cells in the infection model (SARS-CoV-2 [3]; 100 µM, in half of experiments): morphological changes were observed; maximal non-toxic concentration (SARS-CoV-2 [3]; Vero cells, Figure S3): 100 µM
3 | O=c1c(O)c(-c2ccc(O)c(O)c2)oc2cc(O)cc(O)c12 [Quercetin 1, quercetin] |  |  |  | - | - | - | - | - |  | none of the tested concentrations exhibited cytotoxicity | 2,284 | reversibility of the interaction with M^pro (SARS-CoV-2 M^pro [4]; listed as 1): reversible interaction; reversibility of the interaction with M^pro (SARS-CoV-2 M^pro [4]; listed as quercetin): reversible; IC50 (SARS-CoV-2 [1]; infected Vero cells, 2 days, nonlinear regression): 192 µM; Inhibition of the virus-caused cytopathic effect (CPE) (SARS-CoV-2 [3]; 200 µM, Vero cells): +; Inhibition of the virus-caused cytopathic effect (CPE) (SARS-CoV-2 [3]; 250 µM, Vero cells): +; Inhibition of the virus-caused cytopathic effect (CPE) (SARS-CoV-2 [3]; 300 µM, Vero cells): +; Inhibition of the virus-caused cytopathic effect (CPE) (SARS-CoV-2 [3]; 400 µM, Vero cells): +; Inhibition of the virus-caused cytopathic effect (CPE) (SARS-CoV-2 [3]; 500 µM, Vero cells): +
4 | O=c1cc(-c2ccccc2)oc2cc(OCC[Te]c3ccc(Cl)cc3)cc(O)c12 [compound 9, 7-{2-[(4-Chlorophenyl)tellanyl]ethoxy}-5-hydroxy-2-phenyl-4H-chromen-4-one] | 140.3 to 143 °C | 2.2 µM | 0.77 µM | - | - |  | prec/- | prec/tox | No CPE reduction |  |  | toxicity in the cellular infection model (in words) (SARS-CoV-2 [3]; Vero cells, 100-10 µM): toxic; precipitation in the medium (in words) (SARS-CoV-2 [3]; culture medium, 100-10 µM): precipitated
5 | O=c1c2ccccc2[se]n1-c1ccccc1 [ebselen] |  |  |  |  |  |  |  |  |  |  |  | Antiviral activity observed in cell models, in words (SARS-CoV-2 [5]): low micromolar levels; M^pro half-maximal inhibitory concentration (IC50), in words [6]: nanomolar range
6 | C[C@@H]1O[C@@H](OC[C@H]2O[C@@H](Oc3c(-c4ccc(O)c(O)c4)oc4cc(O)cc(O)c4c3=O)[C@H](O)[C@@H](O)[C@@H]2O)[C@H](O)[C@H](O)[C@H]1O [rutin] |  |  |  |  |  |  |  |  |  |  |  | M^pro inhibition potency relative to quercetin, in words [6]: slightly lower potency
